Test results published in patent publication US20200268690A1, “TOPICAL COMPOSITIONS” (Atossa Therapeutics, Inc., priority 2017, published 2020).
Read-outs that look alike come from different tables or passages of the source.

Experiments:
[1] = Accelerated stability of (Z)-endoxifen free base in polar organic solvents in the absence and presence of human cadaver skin; assay type: physicochemical; settings: for % Potency: relative to initiation of study; for potency and stability in presence of skin compared with absence of skin: in the solvents of Table 3, 45° C., after 2 days
Procedure: (§1) HPLC-UV. Briefly, (E)- and (Z)-endoxifen were analyzed by High Performance Liquid Chromatography, HPLC (instrument: Agilent 1100) using a UV detector (Agilent). Chromatographic resolution was obtained using a Luna Phenyl Hexyl Column ([…]×150 mm) at a column temperature of 40° C. Samples were injected in an injection volume of 10 ul and run at a flow rate of 1.0 ml/min. The mobile phase system used consisted of: A) water with 10 mM ammonium formate (HCOONH4) with 0.03% formic acid and B) Methanol with 10 mM ammonium formate (HCOONH4).
The stability studies of endoxifen free base in various pure polar organic solvents/MPEs were performed as described below. Accelerated stability studies of (Z)-endoxifen free base in solvents/MPEs were performed over a course of 2 days at 45° C. in both the presence and the absence of human cadaver skin to assess the degree to which the (Z)-endoxifen conversion to (E)-endoxifen by isomerization and or chemical degradation of the endoxifen is accelerated upon contact with skin and skin components. (Z)-Endoxifen solutions at […] of saturation concentrations were prepared in 1 ml batches in solvents as listed below in the Table 3. The potencies of (Z)-endoxifen and (E)-endoxifen were determined by HPLC-UV analysis as described above. Potency results are shown compared with potencies measured when the sample were stored at the initiation of stability study.

[2] = cited from earlier work
[3] = Solubility of endoxifen free base in polar organic solvents (HPLC-UV); assay type: physicochemical; settings: for Z/E Ratio: room temperature
Procedure: (Z)-endoxifen free base was synthesized as described above in Example 1. (Z)-endoxifen was solubilized in various solvents as provided in Table 1, and tested for physical and chemical stability in solution. The solutions were prepared in ˜1 ml batches typically for solubility and stability testing. The mixture was stirred overnight on a rotisserie at room temperature. The next, day, the suspension was filtered using a syringe filter (0.2 um pore size GHP membrane). The filtrated solution was then analyzed for the concentration of (Z)-endoxifen and (E)-endoxifen as using a validated HPLC-UV method as described below.
as §1
UV detection of (E)-endoxifen and (Z)-endoxifen isomers was performed at 243 nm with a run time of 30 minutes. Retention times for (E)-endoxifen and (Z)-endoxifen were 15.14 m and 16.25 m respectively. […] The solubility of (Z)-endoxifen ranged from about 1 mg/g of solution to over 30 mg/g of solution.

[4] = tested on: patients; settings: oral tamoxifen; cited from earlier work
[5] = in Diethyl Sebacate, 45° C. + skin, 2 days
[6] = in Diethyl Sebacate, 45° C., 2 days
[7] = in Diethylene glycol monoethyl ether, 45° C. + skin, 2 days
[8] = in Diethylene glycol monoethyl ether, 45° C., 2 days
[9] = in Diisopropyl Adipate, 45° C. + skin, 2 days
[10] = in Diisopropyl Adipate, 45° C., 2 days
[11] = in Dimethyl Isosorbide, 45° C. + skin, 2 days
[12] = in Dimethyl Isosorbide, 45° C., 2 days
[13] = in Dimethyl Sulfoxide, 45° C. + skin, 2 days
[14] = in Dimethyl Sulfoxide, 45° C., 2 days
[15] = in Dipropylene Glycol, 45° C. + skin, 2 days
[16] = in Dipropylene Glycol, 45° C., 2 days
[17] = in Isopropanol, 45° C. + skin, 2 days
[18] = in Isopropyl Myristate, 45° C. + skin, 2 days
[19] = in Isopropyl Myristate, 45° C., 2 days
[20] = in PEG 300, 45° C. + skin, 2 days

Compound | % Potency [1, 5] | % Potency [1, 6] | % Potency [1, 7] | % Potency [1, 8] | % Potency [1, 9] | % Potency [1, 10] | % Potency [1, 11] | % Potency [1, 12] | % Potency [1, 13] | % Potency [1, 14] | % Potency [1, 15] | % Potency [1, 16] | % Potency [1, 17] | % Potency ([1]; in Isopropanol, 45° C., 2 days) | % Potency [1, 18] | % Potency [1, 19] | % Potency [1, 20] | % Potency ([1]; in PEG 300, 45° C., 2 days) | potency and stability in presence of skin compared with absence of skin [1] | also measured
CC/C(=C(/c1ccc(O)cc1)c1ccc(OCCNC)cc1)c1ccccc1 [(E)-endoxifen free base] | 99% | 101% | 98% | 100% | 101% | 100% | 16% | 15% | 101% | 101% | 95% | 95% | 106% | 106% | 68% | 67% | 92% | 91% | maintained potency and stability | 
CC/C(=C(\c1ccc(O)cc1)c1ccc(OCCNC)cc1)c1ccccc1.Cl [(Z)-endoxifen HCl] |  |  |  |  |  |  |  |  |  |  |  |  |  |  |  |  |  |  |  | t90 ([2]; 45° C.): 9 days; (Z)-endoxifen HCl remaining after degradation ([2]; aqueous medium, 45° C., day 15, from 98%): 75%; t90 ([2]; room temperature): 149 days
CC/C(=C(\c1ccc(O)cc1)c1ccc(OCCNC)cc1)c1ccccc1 [(Z)-endoxifen free base, (Z)-4-(1-(4-(2-(methylamino)ethoxy)phenyl)-2-phenylbut-1-enyl)phenol] | 94% | 100% | 98% | 100% | 99% | 99% | 17% | 16% | 101% | 102% | 94% | 93% | 105% | 105% | 63% | 65% | 92% | 91% | maintained potency and stability | 
CC/C(=C(\c1ccc(O)cc1)c1ccc(OCCNC)cc1)c1ccccc1 [Endoxifen free base, (E/Z)-4-[1-[4-[2-(Methylamino)ethoxy]phenyl]-2-phenyl-1-buten-1-yl]-phenol] |  |  |  |  |  |  |  |  |  |  |  |  |  |  |  |  |  |  |  | stability (in words) ([1]; dissolved in dimethyl isosorbide and isopropyl myristate, 45° C., 2 days): poor stability; solubility (in words) ([3]; in polar organic solvents/MPEs such as DMSO, ethanol, diethylene monoethyl ether, and oleic acid): significantly soluble; Z/E Ratio ([3]; saturated solution in Capric Trigylceride (Solvent No. 15)): 0.63; Z/E Ratio ([3]; saturated solution in Diethyl Sebacate (Solvent No. 2)): 1.7; Z/E Ratio ([3]; saturated solution in Diethylene glycol monoethyl ether (Solvent No. 10)): 1.89; Z/E Ratio ([3]; saturated solution in Diisopropyl Adipate (Solvent No. 3)): 1.87; Z/E Ratio ([3]; saturated solution in Dimethyl Isosorbide (Solvent No. 4)): 1.82; Z/E Ratio ([3]; saturated solution in Dimethyl Sulfoxide (Solvent No. 1)): 1.87; Z/E Ratio ([3]; saturated solution in Dipropylene Glycol (Solvent No. 5)): 1.82; Z/E Ratio ([3]; saturated solution in Ethanol (Solvent No. 6)): 1.72; Z/E Ratio ([3]; saturated solution in Isopropanol (Solvent No. 7)): 1.88; Z/E Ratio ([3]; saturated solution in Isopropyl Myristate (Solvent No. 12)): 1.09; Z/E Ratio ([3]; saturated solution in Oleic Acid (Solvent No. 14)): 1.02; Z/E Ratio ([3]; saturated solution in PEG300 (Solvent No. 8)): 1.77; Z/E Ratio ([3]; saturated solution in PEG 400 (Solvent No. 11)): 1.78; Z/E Ratio ([3]; saturated solution in Propylene Glycol (Solvent No. 9)): 1.60; Z/E Ratio ([3]; saturated solution in Soybean Oil (Solvent No. 13)): 0.76
CC/C(=C(\c1ccccc1)c1ccc(OCCN(C)C)cc1)c1ccccc1 [tamoxifen, (Z)-2-[4-(1,2-diphenyl-1-butenyl)phenoxy]-N,N-dimethylethanamine] |  |  |  |  |  |  |  |  |  |  |  |  |  |  |  |  |  |  |  | patients with elevated liver function tests, especially SGOT/AST [4]: about 5%
